Series [1] is described as follows: Atovaquone solubility in pharmaceutical excipients. The class given is physicochemical. Particulars: thermodynamic from solid. As to the method:
Excess atovaquone (100 mg/mL) (Molekula, Irvine, Calif.) was added to each of the following excipients: Benzyl Benzoate, Tween 20, Tween 80, PEG 200, PEG 400, Labrafac, Labrafil, Capryol, Capmul, Captex, Propylene Glycol and Isopropyl Palmitate. The mixtures were shaken at 100 RPM at 37° C. for 48 hours. Each individual sample was centrifuged at 3000 RPM for 10 minutes. The supernatant was then filtered through a 0.45 μm PTFE filter. Quantification of atovaquone content in the filtrate was performed using a Dionex HPLC (Thermo Fisher Scientific Inc., Waltham, Mass.) with an Inertsil® ODS-2 column (5 μm, 4.6×250 mm) with a mobile phase 0.1% TFA ACN: 0.1% TFA H2O (80:20) at flow rate of 2 mL/min and a run time of 10 minutes.

The nature of series [2]: Atovaquone solubility in pharmaceutical excipients. Format: physicochemical. Particulars: thermodynamic from solid. This is another data set of the same source.

In brackets after ≈: the same amount, converted by molar mass.

Regarding `O=C1C(O)=C([C@H]2CC[C@H](c3ccc(Cl)cc3)CC2)C(=O)c2ccccc21` [atovaquone], the solubility at 48 h in series [1] (Benzyl Benzoate (neat excipient), organic solvent or mixture, in Benzyl Benzoate, 37° C.) came to 14300 µg/mL (≈ 39 mM); in series [1] (Capryol (neat excipient), oil or lipid, in Capryol, 37° C.), 5540 µg/mL (≈ 15.1 mM); in series [1] (Isopropyl Palmitate (neat excipient), oil or lipid, in Isopropyl Palmitate, 37° C.), 2460 µg/mL (≈ 6.71 mM); in series [1] (Labrafil (neat excipient), oil or lipid, in Labrafil, 37° C.), 3980 µg/mL (≈ 10.8 mM); in series [1] (Labrasol (neat excipient), organic solvent or mixture, in Labrasol, 37° C.), 10200 µg/mL (≈ 27.9 mM); in series [1] (PEG 200 (neat excipient), organic solvent or mixture, in PEG 200, 37° C.), 4780 µg/mL (≈ 13 mM). Moreover, the solubility at 48 h in series [1] (PEG 400 (neat excipient), organic solvent or mixture, in PEG 400, 37° C.) came out at 7220 µg/mL (≈ 19.7 mM); in series [1] (Tween 20 (neat excipient), organic solvent or mixture, in Tween 20, 37° C.), 9690 µg/mL (≈ 26.4 mM); in series [2] (Capmul (neat excipient), oil or lipid, in Capmul, 37° C.), 3470 µg/mL (≈ 9.46 mM); in series [2] (Captex (neat excipient), oil or lipid, in Captex, 37° C.), 4590 µg/mL (≈ 12.5 mM); in series [2] (Labrafac (neat excipient), oil or lipid, in Labrafac, 37° C.), 4080 µg/mL (≈ 11.1 mM); in series [2] (Propylene Glycol (neat excipient), organic solvent or mixture, in Proplylene Gycol, 37° C.) it was 380 µg/mL (≈ 1.04 mM). Moreover, the solubility at 48 h in series [2] (Tween 80 (neat excipient), organic solvent or mixture, in Tween 80, 37° C.) came out at 10200 µg/mL (≈ 27.9 mM).

The values are drawn from patent US20200206139A1, “COMPOSITIONS FOR THE IMPROVED DELIVERY OF DRUGS” (BOARD OF REGENTS, THE UNIVERSITY OF TEXAS SYSTEM, priority 2017, published 2020).
